Here are results for 34 compounds from patent US20150225404A1, “PYRIDINE DERIVATIVE AND MEDICINE” (NIPPON SHINYAKU CO., LTD., priority 2012, published 2015).

pIC50: −log10 of the molar value. Structures can show the parent of a compound that is named as a salt.

For orientation: pIC50 means the negative decadic logarithm of the IC50, by convention in mol/L. Higher therefore signals a small IC50.

In the assay the target is T1, human mGluR5 (Homo sapiens, UniProt P41594).
T1 construct: expressed in transfected cells
T1 sequence (P41594 21-1212): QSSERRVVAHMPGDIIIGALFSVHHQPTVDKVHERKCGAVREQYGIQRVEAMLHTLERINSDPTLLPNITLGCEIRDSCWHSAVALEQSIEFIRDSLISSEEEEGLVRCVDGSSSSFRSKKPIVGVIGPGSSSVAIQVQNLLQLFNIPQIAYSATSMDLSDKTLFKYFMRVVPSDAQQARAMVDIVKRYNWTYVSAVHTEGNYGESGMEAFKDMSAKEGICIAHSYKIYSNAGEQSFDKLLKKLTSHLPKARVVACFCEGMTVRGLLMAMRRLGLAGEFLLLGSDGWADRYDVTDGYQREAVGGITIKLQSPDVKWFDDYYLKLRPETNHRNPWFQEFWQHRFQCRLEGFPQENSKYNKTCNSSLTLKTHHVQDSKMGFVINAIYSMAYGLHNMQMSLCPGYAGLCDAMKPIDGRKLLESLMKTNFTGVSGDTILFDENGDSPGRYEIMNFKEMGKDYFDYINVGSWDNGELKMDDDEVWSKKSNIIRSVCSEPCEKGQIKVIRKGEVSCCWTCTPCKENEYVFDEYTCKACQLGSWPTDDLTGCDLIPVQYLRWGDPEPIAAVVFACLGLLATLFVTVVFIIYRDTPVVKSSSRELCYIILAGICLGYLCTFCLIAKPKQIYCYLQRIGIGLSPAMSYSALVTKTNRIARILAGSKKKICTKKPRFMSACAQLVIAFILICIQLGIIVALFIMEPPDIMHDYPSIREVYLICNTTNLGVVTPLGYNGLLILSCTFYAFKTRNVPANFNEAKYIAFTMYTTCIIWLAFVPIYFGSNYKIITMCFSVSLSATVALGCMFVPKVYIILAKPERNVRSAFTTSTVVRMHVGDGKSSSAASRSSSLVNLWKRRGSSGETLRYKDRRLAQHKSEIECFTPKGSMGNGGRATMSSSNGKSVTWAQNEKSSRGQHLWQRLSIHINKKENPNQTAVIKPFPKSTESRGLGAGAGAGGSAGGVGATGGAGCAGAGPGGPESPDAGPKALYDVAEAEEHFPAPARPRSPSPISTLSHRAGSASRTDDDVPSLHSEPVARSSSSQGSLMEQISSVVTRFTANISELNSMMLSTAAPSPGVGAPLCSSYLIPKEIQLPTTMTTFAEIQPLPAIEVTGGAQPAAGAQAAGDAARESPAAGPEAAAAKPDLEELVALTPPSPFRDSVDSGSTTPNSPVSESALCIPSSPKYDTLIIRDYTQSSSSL
The assay is described as follows: Experiment for receptor function of mGluR5 (Ca2+-dependent fluorescence, FLIPR, CHO-K1 cells stably expressing human mGluR5). The assay is classed as cell-based. The note with it: L-glutamic acid 10 μM, Fluo-4 fluorescence. Here is the method:
Stable expression cells in which the human mGluR5 gene had been introduced into a Chinese hamster ovary cell (CHO-K1) were used for evaluation. The cells were suspended in a growth medium (MEM-α (D8042, available from Sigma) containing 10% inactivated FBS (Cat. No. 171012, available from CCB) and 2 mM glutamax (Cat. No. 35050, available from GIBCO)) and seeded on a black clear-bottom 96-well plate at 100,000 cells per well. One day after seeding, the medium was replaced by a medium (Hanks' balanced salt solution (HBSS buffer solution) (20 mM HEPES, 2.5 mM probencide (165-15472, available from Wako Pure Chemical Industries, Ltd.), and 10×HBSS (14065-056, available from Gibco) diluted 10 times, pH 7.4)) containing a calcium-sensitive dye Fluo-4 AM at a final concentration of […] (F312, available from Dojindo Laboratories) and Pluronic F-127 at a final concentration of 0.0145% (P-2443, available from Sigma), followed by incubation at 37° C. for one hour, thereby loading Fluo-4 AM into the cells.
Subsequently, the cells were washed twice with an HBSS buffer solution, to which was subsequently added the same buffer solution. Twenty minutes thereafter, the plate was transferred into a fluorescence screening system (FLIPR TETRA, available from Molecular Devices, LLC) and measured for a Ca^2+-dependent fluorescence change in the cells.
First of all, a fluorescence baseline was measured, and thereafter, fluorescence measurement was performed for 2 minutes while adding a test substance, an excessive amount of 6-methyl-2-(phenylethynyl)pyridine (hereinafter referred to as “MPEP”) (final concentration: 10 μM), or the medium. Thereafter, fluorescence measurement was carried out for one minute while adding L-glutamic acid (final concentration: 10 μM).
While taking a fluorescence intensity caused by L-glutamic acid as 100% and a fluorescence intensity caused by L-glutamic acid in the presence of MPEP as 0%, respectively, function inhibitory activity against human mGluR5 was evaluated from the fluorescence intensity caused by L-glutamic acid in the presence of the test substance at each concentration, and an IC50 value was estimated according to a logistic equation (SAS System).
The compound `Cc1cc(COc2cc(-c3cnc(C)nc3)c3c(n2)CCCC3)ccn1` [Example 286, 2-[(2-Methylpyridin-4-yl)methoxy]-4-(2-methylpyrimidin-5-yl)-5,6,7,8-tetrahydroquinoline] showed a negative logarithm of the IC50 (pIC50) of 7.02.

In turn, `N#Cc1ncc(-c2cc(OCc3ccccn3)nc3c2CCC3)cn1` [Example 37, 5-[2-(Pyridin-2-ylmethoxy)-6,7-dihydro-5H-cyclopenta[b]pyridin-4-yl]pyrimidine-2-carbonitrile hydrochloride] had a pIC50 of 7.10. For `Clc1cncc(-c2cc(OCc3ccccn3)nc3c2CCCC3)n1` [Example 195, 4-(6-Chloropyrazin-2-yl)-2-(pyridin-2-ylmethoxy)-5,6,7,8-tetrahydroquinoline] the value was 7.61. As for `Nc1ncc(-c2cc(OCc3ccccn3)nc3c2CCC3)cn1` [Example 259, 5-[2-(Pyridin-2-ylmethoxy)-6,7-dihydro-5H-cyclopenta[b]pyridin-4-yl]pyrimidin-2-amine hydrochloride], the pIC50 is 7.56. Consider `Fc1cccc(-c2cc(OCc3ccccn3)nc3c2CCC3)c1` [Example 58, 4-(3-Fluorophenyl)-2-(pyridin-2-ylmethoxy)-6,7-dihydro-5H-cyclopenta[b]pyridine], for which the pIC50 is 7.25. The same measure for `c1ccc(COc2cc(-c3cnccn3)c3c(n2)CCCCC3)nc1` [Example 234, 4-(Pyrazin-2-yl)-2-(pyridin-2-ylmethoxy)-6,7,8,9-tetrahydro-5H-cyclohepta[b]pyridine hydrochloride]: 7.38; for `N#Cc1ccc(COc2cc(-c3cncc(CO)n3)c3c(n2)CCCC3)nc1` [Example 288, 6-[({4-[6-(Hydroxymethyl)pyrazin-2-yl]-5,6,7,8-tetrahydroquinolin-2-yl}oxy)methyl]pyridine-3-carbonitrile]: 6.92.

`Cc1ncc(-c2cc(OCc3ccccc3)nc3c2CCC3)cn1` [Example 38, 2-(Benzyloxy)-4-(2-methylpyrimidin-5-yl)-6,7-dihydro-5H-cyclopenta[b]pyridine]: the pIC50 is 7.35.

In the case of `Cc1cccc(COc2cc(-c3cncnc3)c3c(n2)CCC3)n1` [Example 28, 2-[(6-Methylpyridin-2-yl)methoxy]-4-(pyrimidin-5-yl)-6,7-dihydro-5H-cyclopenta[b]pyridine], the negative logarithm of the IC50 (pIC50) is 6.98.

Regarding `c1ccc(COc2cc(-c3cnccn3)c3c(n2)CCCC3)nc1` [Example 194, 4-(Pyrazin-2-yl)-2-(pyridin-2-ylmethoxy)-5,6,7,8-tetrahydroquinoline hydrochloride], the pIC50 was 7.94. The same measure for `Fc1ncc(-c2cc(OCc3ccccn3)nc3c2CCCC3)cn1` [Example 167, 4-(2-Fluoropyrimidin-5-yl)-2-(pyridin-2-ylmethoxy)-5,6,7,8-tetrahydroquinoline hydrochloride]: 7.69; for `Cc1ncc(-c2cc(OCc3ncccc3F)nc3c2CCC3)cn1` [Example 41, 2-[(3-Fluoropyridin-2-yl)methoxy]-4-(2-methylpyrimidin-5-yl)-6,7-dihydro-5H-cyclopenta[b]pyridine]: 7.52; for `Nc1ncc(-c2cc(OCc3cccc(F)c3)nc3c2CCC3)cn1` [Example 263, 5-{2-[(3-Fluorobenzyl)oxy]-6,7-dihydro-5H-cyclopenta[b]pyridin-4-yl}pyrimidin-2-amine]: 6.95. In turn, `CC(=O)c1cncc(-c2cc(OCc3ccccn3)nc3c2CCCC3)c1` [Example 115, 1-{5-[2-(Pyridin-2-ylmethoxy)-5,6,7,8-tetrahydroquinolin-4-yl]pyridin-3-yl}ethanone dihydrochloride] showed a pIC50 of 7.01.

Consider `N#Cc1ccc(-c2cc(OCc3ccccn3)nc3c2CCC3)cc1F` [Example 66, 2-Fluoro-4-[2-(pyridin-2-ylmethoxy)-6,7-dihydro-5H-cyclopenta[b]pyridin-4-yl]benzonitrile], for which the pIC50 was 6.97. The same measure for `N#Cc1ccc(COc2cc(-c3cncnc3)c3c(n2)CCCC3)nc1` [Example 150, 6-({[4-(Pyrimidin-5-yl)-5,6,7,8-tetrahydroquinolin-2-yl]oxy}methyl)pyridine-3-carbonitrile]: 7.20. The same measure for `c1cncc(-c2cc(OCc3nccs3)nc3c2CCCC3)c1` [Example 94, 4-(Pyridin-3-yl)-2-(1,3-thiazol-2-ylmethoxy)-5,6,7,8-tetrahydroquinoline hydrochloride]: 7.12; for `N#Cc1ccc(COc2cc(-c3cncc(CO)c3)c3c(n2)CCCC3)nc1` [Example 276, 6-[({4-[5-(Hydroxymethyl)pyridin-3-yl]-5,6,7,8-tetrahydroquinolin-2-yl}oxy)methyl]pyridine-3-carbonitrile]: 7.55; for `N#Cc1cncc(-c2cc(OCc3ccccn3)nc3c2CCC3)n1` [Example 54, 6-[2-(Pyridin-2-ylmethoxy)-6,7-dihydro-5H-cyclopenta[b]pyridin-4-yl]pyrazine-2-carbonitrile hydrochloride]: 7.70.

Compound `N#Cc1cccc(COc2cc(-c3cncnc3)c3c(n2)CCCC3)n1` [Example 149, 6-({[4-(Pyrimidin-5-yl)-5,6,7,8-tetrahydroquinolin-2-yl]oxy}methyl)pyridine-2-carbonitrile] had a pIC50 of 7.71. For `N#Cc1ccc(-c2cc(OCc3ccccn3)nc3c2CCC3)cn1` [Example 4, 5-[2-(Pyridin-2-ylmethoxy)-6,7-dihydro-5H-cyclopenta[b]pyridin-4-yl]pyridine-2-carbonitrile hydrochloride] the value was 6.83. For `N#Cc1ccc(COc2cc(-c3cncnc3)c3c(n2)CCCC3)cc1` [Example 278, 4-({[4-(Pyrimidin-5-yl)-5,6,7,8-tetrahydroquinolin-2-yl]oxy}methyl)benzonitrile] the value was 7.06; for `N#Cc1cc(COc2cc(-c3cncnc3)c3c(n2)CCCC3)ccn1` [Example 282, 4-({[4-(Pyrimidin-5-yl)-5,6,7,8-tetrahydroquinolin-2-yl]oxy}methyl)pyridine-2-carbonitrile], 7.18; for `OCc1cncc(-c2cc(OCc3ccccn3)nc3c2CCCC3)n1` [Example 204, {6-[2-(Pyridin-2-ylmethoxy)-5,6,7,8-tetrahydroquinolin-4-yl]pyrazin-2-yl}methanol], 6.64.

The compound `OCc1cncc(-c2cc(OCc3cccc(F)c3)nc3c2CCC3)c1` [Example 249, (5-{2-[(3-Fluorobenzyl)oxy]-6,7-dihydro-5H-cyclopenta[b]pyridin-4-yl}pyridin-3-yl)methanol] gave a negative logarithm of the IC50 (pIC50) of 7.28. The same measure for `Fc1cccc(COc2cc(-c3cncnc3)c3c(n2)CCCC3)n1` [Example 144, 2-[(6-Fluoropyridin-2-yl)methoxy]-4-(pyrimidin-5-yl)-5,6,7,8-tetrahydroquinoline]: 7.71.

For the compound `CS(=O)(=O)Oc1cc(F)cc(-c2cc(OCc3ccccn3)nc3c2CCC3)c1` [Example 69, 3-Fluoro-5-[2-(pyridin-2-ylmethoxy)-6,7-dihydro-5H-cyclopenta[b]pyridin-4-yl]phenyl methanesulfonate], the pIC50 was 7.03. For `N#Cc1cccc(COc2cc(-c3cnc(N)nc3)c3c(n2)CCC3)c1` [Example 265, 3-({[4-(2-Aminopyrimidin-5-yl)-6,7-dihydro-5H-cyclopenta[b]pyridin-2-yl]oxy}methyl)benzonitrile], the pIC50 is 7.33. The same measure for `Fc1cncc(-c2cc(OCc3ccccn3)nc3c2CCCC3)n1` [Example 199, 4-(6-Fluoropyrazin-2-yl)-2-(pyridin-2-ylmethoxy)-5,6,7,8-tetrahydroquinoline hydrochloride]: 7.61. The same measure for `Cc1csc(COc2cc(-c3cccnc3)c3c(n2)CCCC3)n1` [Example 95, 2-[(4-Methyl-1,3-thiazol-2-yl)methoxy]-4-(pyridin-3-yl)-5,6,7,8-tetrahydroquinoline]: 7.38. For `Cc1ncc(-c2cc(OCc3ccc(F)cn3)nc3c2CCCC3)cn1` [Example 186, 2-[(5-Fluoropyridin-2-yl)methoxy]-4-(2-methylpyrimidin-5-yl)-5,6,7,8-tetrahydroquinoline] the value was 7.59. Take `OCc1cncc(-c2cc(OCc3ccc(F)cn3)nc3c2CCC3)n1` [Example 269, (6-{2-[(5-Fluoropyridin-2-yl)methoxy]-6,7-dihydro-5H-cyclopenta[b]pyridin-4-yl}pyrazin-2-yl)methanol]: the pIC50 was 7.17.

As for `Cc1coc(COc2cc(-c3cccnc3)c3c(n2)CCCC3)n1` [Example 92, 2-[(4-Methyl-1,3-oxazol-2-yl)methoxy]-4-(pyridin-3-yl)-5,6,7,8-tetrahydroquinoline], the pIC50 was 7.40. `N#Cc1ncc(-c2cc(OCc3ncccc3F)nc3c2CCC3)cn1` [Example 50, 5-{2-[(3-Fluoropyridin-2-yl)methoxy]-6,7-dihydro-5H-cyclopenta[b]pyridin-4-yl}pyrimidine-2-carbonitrile] had a negative-log IC50 (pIC50) of 6.75.
